Key:
GPR119 [1] = target: T1, GPR119 (Homo sapiens, UniProt Q8TDV5); test: cAMP Accumulation Assay (GPR119 CRE-bla CHO-K1 cells, LiveBLAzer-FRET B/G); format: cell-based; conditions: for EC50: 5 hours incubation; for Emax (Fold): maximum activity, response ratio versus non-treated control group
T1 construct: host or cells: CHO-K1 (GPR119 CRE-bla, doxycycline-induced)
T1 sequence (Q8TDV5 1-335): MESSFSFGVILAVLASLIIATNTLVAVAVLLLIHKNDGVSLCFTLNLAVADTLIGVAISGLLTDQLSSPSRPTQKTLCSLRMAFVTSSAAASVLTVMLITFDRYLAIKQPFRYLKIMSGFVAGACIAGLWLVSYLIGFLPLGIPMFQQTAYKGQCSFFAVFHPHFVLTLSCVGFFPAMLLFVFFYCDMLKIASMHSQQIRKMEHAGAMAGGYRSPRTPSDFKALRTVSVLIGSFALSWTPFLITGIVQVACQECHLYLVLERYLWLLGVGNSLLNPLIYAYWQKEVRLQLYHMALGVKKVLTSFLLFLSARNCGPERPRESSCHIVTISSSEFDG
Protocol: 32 μl of an assay medium (DMEM supplemented with GlutaMax™ 99%, dialyzed FBS 1%, non-essential amino acid 1 mM, HEPES 25 mM, penicillin 100 U/ml, and streptomycin 100 μg/ml) was added to each well of a 384 black well plate and then the GPR119 CRE-bla CHO-K1 cells (Invitrogen) were seeded in 1×10^4 cells per well. Doxycycline was dissolved in the assay medium in the concentration of 1 μg/ml. The resulting solution (4 μl) was added to each well, which was then incubated in a 5% CO 2 incubator at 37° C. for about 20 to 24 hours. Each test compounds were diluted with the assay medium to prepare 10 samples, which have concentrations ranging from […], respectively. Each samples (8 μl) was added to each well, which was then incubated in a 5% CO2 incubator at 37° C. for 5 hours. In case of the control group, the well was treated with a solution (8 μl) prepared by diluting dimethyl sulfoxide (DMSO) in the assay medium to 1%. The substrate mixture (8 μl) was added to each well, which was then left under darkness at room temperature for 2 hours. The substrate mixture contains the followings: 1 mM LiveBLAzer™-FRET B/G(CCF4-AM) substrate 6 μl, solution B 60 μl, solution C 904 μl, and solution D 30 μl.
Fluorescence intensity was determined under the wavelength conditions of 400 nm/465 nm (excitation/emission) for the blue channel and 400 nm/535 nm (excitation/emission) for the green channel, with the fluorescence microplate reader (SpectraFluor Plus. TECAN). The net activity of each well was calculated by subtracting the average value of the cell-free control group from the value of the unstimulated (i.e., non-treated) control group or the stimulated (i.e., test compound-treated) group at each wavelength. MBX-2982 (Metabolex) was used as a control drug. The response ratio was calculated by dividing the net signal ratio (465 nm/535 nm) of the control drug or the test compound by the net signal ratio (465 nm/535 nm) of the non-treated control group. The relative ratio (R.R) was calculated by dividing the maximum activity [Emax (fold)] of the test compound (i.e., % activity in comparison with the background) by the maximum activity [Emax (fold)] of the control drug (MBX-2982) [Emax (% RR)=(Emax of the test compound/Emax of MBX-2982)×100]. EC50 (half maximal effective concentration) was calculated using the software for statistical analysis “Prism 5.0 (GraphPad)”, based on the values obtained according to concentrations of the test compounds.

male C57BL/6 mice = test: Oral Glucose Tolerance Test (OGTT); format: in vivo; parameters: concentration or dose not given beside the values; conditions: fasted male C57BL/6 mice, oral administration 30 minutes before oral glucose; AUCglucose 0-120 minutes versus negative control group
Protocol: The oral glucose tolerance test of the compounds according to the present invention was carried out according to the procedures disclosed in Andrikopoulos S, Blair A R, Deluca N, Fam B C, Proietto J, Am J Physiol Endocrinol Metab. 2008, Vol 295, E1323-1332. Briefly, male C57BL/6 mice at 8 to 9 weeks of age having 20 g to 25 g of body weight (Orient Bio Inc. Korea) were allowed to acclimatize to the surroundings (temperature: 20±2° C., humidity: 40-60%, light/dark cycle: 12 hours) for 1 week. During the acclimatization, the mice were given ad libitum access to feed and water. The mice were fasted from 18 hours before the test, except for allowing free access to water. After measuring the mice′ body weights and blood sugar levels, they were divided into test groups so as to have similar blood sugar levels. The mice were orally administered with a mixture of test compound and the diluent (0.5% solution of MC1500 (Sigma)). At 30 minutes after the administration, the mice were also orally administered with 20% glucose solution in an amount of 0.1 ml per 10 g of body weight. The blood samples were taken from the tail vain at 0 (right before the administration of the glucose solution), 15, 30, 60, 90, and 120 minutes after the administration of the glucose solution; and the blood sugar levels thereof were measured with a blood glucose test meter (GlucoDr. AGM-3000, All Medicus Co. Ltd.). The graph for blood sugar level on time for each test compound was plotted from the respective blood sugar values; and then area under the curve (AUCglucose) was determined. The inhibition rate of blood sugar (%) was calculated from the following formula. Inhibition rate of blood sugar (%)=[(AUCglucose of the negative control group−AUCglucose of the test group)/AUCglucose of the negative control group]×100

GPR119 [2] = target: T1, GPR119; test: cAMP Accumulation Assay (GPR119 CRE-bla CHO-K1 cells, LiveBLAzer-FRET B/G); format: cell-based; conditions: (Emax of the test compound/Emax of MBX-2982)x100, 5 hours incubation

Compound	EC50 (GPR119 [1]) [nM]	Emax (Fold) (GPR119 [1])	Inhibition rate of blood sugar (%) (male C57BL/6 mice)	Emax (% RR) (GPR119 [2])
C[C@H]1CN(C(=O)OC(C)(C)C)CCN1c1ncc(-c2ccc(-n3cnn(C)c3=O)c(F)c2)cn1 [Example 1, (S)-tert-butyl 4-(5-(3-fluoro-4-(1-methyl-5-oxo-1H-1,2,4-triazol-4(5H)-yl)phenyl)pyrimidin-2-yl)-3-methylpiperazin-1-carboxylate]	59	2.9	22.3	123.9
CCCn1ncn(-c2ccc(-c3cnc(N4CCN(C(=O)OC(C)(C)C)C[C@@H]4C)c(C#N)c3)cc2F)c1=O [Example 5, (S)-tert-butyl 4-(3-cyano-5-(3-fluoro-4-(5-oxo-1-propyl-1H-1,2,4-triazol-4(5H)-yl)phenyl)pyridin-2-yl)-3-methylpiperazin-1-carboxylate]	4	2.7	21.9	109.1
CCc1cnc(N2CCN(c3ncc(-c4ccc(-n5cnn(CCN(CC)CC)c5=O)c(F)c4)cc3C#N)[C@@H](C)C2)nc1 [Example 10, (S)-5-(4-(1-(2-(diethylamino)ethyl)-5-oxo-1H-1,2,4-triazol-4(5H)-yl)-3-fluorophenyl)-2-(4-(5-ethylpyrimidin-2-yl)-2-methylpiperazin-1-yl)nicotinonitrile]	8	2.6	23.8	104.5
CCc1cnc(N2CCN(c3ncc(-c4ccc(-n5cnn(CCN6CCCC6)c5=O)c(F)c4)cc3C#N)[C@@H](C)C2)nc1 [Example 14]	14.8	3.3	18.6	125.1
CCc1cnc(N2CCN(c3ncc(-c4ccc(-n5cnn(CCN6CCOCC6)c5=O)c(F)c4)cc3C#N)[C@@H](C)C2)nc1 [Example 15, (S)-2-(4-(5-ethylpyrimidin-2-yl)-2-methylpiperazin-1-yl)-5-(3-fluoro-4-(1-(2-morpholinoethyl)-5-oxo-1H-1,2,4-triazol-4(5H)-yl)phenyl)nicotinonitrile]	5	3.5	21.7	124.5
CCc1cnc(N2CCN(c3ncc(-c4ccc(-n5cnn(C(C)C)c5=O)c(F)c4)cc3C#N)CC2)nc1 [Example 44, 2-(4-(5-ethylpyrimidin-2-yl)piperazin-1-yl)-5-(3-fluoro-4-(1-isopropyl-5-oxo-1H-1,2,4-triazol-4(5H)-yl)phenyl)nicotinonitrile sulfonate]	–	–	27.0	–
CCCn1ncn(-c2ccc(-c3ccc(N4CCN(C(=O)OC(C)(C)C)CC4C(F)(F)F)nc3)cc2F)c1=O (stereo not shown) [Example 50, tert-butyl 4-(5-(3-fluoro-4-(5-oxo-1-propyl-1H-1,2,4-triazol-4(5H)-yl)phenyl)pyridin-2-yl)-3-(trifluoromethyl)piperazin-1-carboxylate]	–	–	15.6	–
CCN(CC)CCn1ncn(-c2ccc(-c3cnc(N4CCC(N(C)C(=O)OC(C)(C)C)CC4)c(C#N)c3)cc2F)c1=O [Example 61, tert-butyl 1-(3-cyano-5-(4-(1-(2-(diethylamino)ethyl)-5-oxo-1H-1,2,4-triazol-4(5H)-yl)-3-fluorophenyl)pyridin-2-yl)piperidin-4-yl(methyl)carbamate]	–	–	18.0	–
CCN(CC)CCn1ncn(-c2ccc(-c3cnc(N4CCC(c5nc(C(C)C)no5)CC4)c(C#N)c3)cc2F)c1=O [Example 63, 5-(4-(1-(2-(diethylamino)ethyl)-5-oxo-1H-1,2,4-triazol-4(5H)-yl)-3-fluorophenyl)-2-(4-(3-isopropyl-1,2,4-oxadiazol-5-yl)piperidin-1-yl)nicotinonitrile]	–	–	27.7	–
CCn1ncn(-c2ccc(-c3cnc(N4CCC(c5nc(C(C)C)no5)CC4)c(C#N)c3)cc2)c1=O [Example 65, 5-(4-(1-ethyl-5-oxo-1H-1,2,4-triazol-4(5H)-yl)phenyl)-2-(4-(3-isopropyl-1,2,4-oxadiazol-5-yl)piperidin-1-yl)nicotinonitrile]	2.4	3.6	–	123.8
CCCn1ncn(-c2ccc(-c3cnc(N4CCC(c5noc(C(C)C)n5)CC4)c(C#N)c3)cc2F)c1=O [Example 66, 5-(3-fluoro-4-(5-oxo-1-propyl-1H-1,2,4-triazol-4(5H)-yl)phenyl)-2-(4-(5-isopropyl-1,2,4-oxadiazol-3-yl)piperidin-1-yl)nicotinonitrile]	2.5	3.1	–	122.1
CC(C)c1nc(C2CCN(c3ncc(-c4ccc(-n5cnn(CN6CCCC6)c5=O)c(F)c4)cc3C#N)CC2)no1 [Example 68]	2.6	3.8	–	130.8
CC(C)c1nc(C2CCN(c3ncc(-c4ccc(-n5cnn(CC(N)=O)c5=O)cc4)cc3C#N)CC2)no1 [Example 72, 2-(4-(4-(5-cyano-6-(4-(5-isopropyl-1,2,4-oxadiazol-3-yl)piperidin-1-yl)pyridin-3-yl)phenyl)-5-oxo-4,5-dihydro-1H-1,2,4-triazol-1-yl)acetamide]	–	–	16.5	–
CC(C)n1ncn(-c2ccc(-c3cnc(N4CCC(c5nnc(C(F)(F)F)o5)CC4)c(C#N)c3)cc2)c1=O [Example 73, 5-(4-(1-isopropyl-5-oxo-1H-1,2,4-triazol-4(5H)-yl)phenyl)-2-(4-(5-(trifluoromethyl)-1,3,4-oxadiazol-2-yl)piperidin-1-yl)nicotinonitrile]	8.2	2.9	–	101.3
CC(C)n1ncn(-c2ccc(-c3cnc(N4CCC(c5nnc(C(F)(F)F)o5)CC4)c(C#N)c3)cc2F)c1=O [Example 74, 5-(3-fluoro-4-(1-isopropyl-5-oxo-1H-1,2,4-triazol-4(5H)-yl)phenyl)-2-(4-(5-(trifluoromethyl)-1,3,4-oxadiazol-2-yl)piperidin-1-yl)nicotinonitrile]	5.6	3.0	–	104.2
COCCn1ncn(-c2ccc(-c3cnc(N4CCC(c5nnc(C(F)(F)F)o5)CC4)c(C#N)c3)cc2F)c1=O [Example 76, 5-(3-fluoro-4-(1-(2-methoxyethyl)-5-oxo-1H-1,2,4-triazol-4(5H)-yl)phenyl)-2-(4-(5-(trifluoromethyl)-1,3,4-oxadiazol-2-yl)piperidin-1-yl)nicotinonitrile]	19.6	2.9	–	101.8

From patent US9663495B2 (YUHAN CORPORATION, priority 2013, dated 2017)
